# Measurements from PMC4513294, “L-Asparaginase from Streptomyces griseus NIOT-VKMA29: optimization of process variables using factorial designs and molecular characterization of L-asparaginase gene” (Scientific Reports, 2015).
# Target: T1, L-asparaginase (ansA) (Streptomyces griseus, UniProt Q54237)
# T1 construct: gene orf4; full-length ORF (987 bp, 328 residues, 33721 Da) in pQE30, expressed in E. coli M15(pREP4); unpurified expressed cells; 34 kDa band on SDS-PAGE
# T1 sequence (Q54237 1-328): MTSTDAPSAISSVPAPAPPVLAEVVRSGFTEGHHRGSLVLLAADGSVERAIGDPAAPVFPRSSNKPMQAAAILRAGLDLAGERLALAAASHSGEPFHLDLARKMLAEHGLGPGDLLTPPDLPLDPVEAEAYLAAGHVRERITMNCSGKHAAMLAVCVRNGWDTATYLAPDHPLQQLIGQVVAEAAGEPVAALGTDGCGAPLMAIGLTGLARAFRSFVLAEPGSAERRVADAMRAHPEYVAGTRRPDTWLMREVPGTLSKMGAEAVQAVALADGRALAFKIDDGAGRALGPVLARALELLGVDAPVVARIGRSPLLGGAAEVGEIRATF
# Assay: ammonia release, Nesslerization
# Type: cell-based
# Conditions: recombinant E. coli M15 expressed cells compared with control cells; host background activity present
smiles,measurement,value
NC(=O)C[C@H](N)C(=O)O [L-asparagine],"ammonia release, Nesslerization",The expression of asparaginase biosynthetic gene was confirmed by Nesslerization assay
